Where “and” joins values, the source holds several entries; their conditions need not be identical. Identical values can stand only once.
What was measured:
[1] = system: Sprague-Dawley rats injected with Kainic acid; test: Kainic acid induced neurodegeneration and seizure in rats (Example 21); format: in vivo, rat; settings: oral
Text: Seizure behaviors were observed and scored (Ref. R. J. Racine, Modification of seizure activity by electrical stimulation: II. Motor seizure, Electroencephalogr. Clin. Neurophysiol. 32 (1972) 281-294. Modifications were made for the methods). Brain tissues of rats were sectioned on histology slides, and neurons in hippocampus tissues were stained by Nissl. Neurons damaged by Kainic acid and behavior scores were quantified.

[2] = Pharmacokinetics of CNS-102 in rats, IV and oral; format: in vivo; settings: rat
Procedure: Rats were administered a single dose of CNS-102 either intravenously (12 mg/kg) or orally (24 mg/kg), and blood samples were taken to measure the average plasma concentrations of CNS-102 over time.
The formulation for this study includes the following: […]
AUC(0-last) (min*ng/ml): area under the concentration-time curve from zero up to the last measurable time-point.
lz (1/min): the first order rate constant associated with the terminal (log-linear) portion of the curve, estimated by linear regression of time vs. log concentration.
Terminal Half-Life (t½)=ln(2)/lz: calculated using Lambda_z method to find best fit. If necessary, the concentration-time points were manually selected for use in the calculation. Bolded-italicized concentrations indicate points used for calculation.
AUC(0-inf) (min*ng/ml): Area under the concentration-time curve from zero up to infinity, based on the last observed concentration. Requires lz.

HSP70 [3] = test: HSP70 expression in Neuro2A cells by western blot; format: cell-based, mouse; settings: Neuro2A cells, western blot
Procedure: Differentiation was induced and cells incubated with geranylgeranyl transferase I inhibitor, GGTI-298. Cells were harvested and lysates were prepared and analyzed by western blot for HSP70 and HSP90. Western signals in the absence of the compounds were normalized as 1.00.

HSP70 [4] = test: HSP70 expression in cortex and hippocampus by western blot after oral dosing; format: in vivo, rat; parameters: HSP70 expression, treatment average: scale not given here
Procedure: The time course of protein expression, as measured by western blot for HSP70, was determined in triplicate for hippocampus, and cortex tissue samples taken from each of 5 animals per group at each of four time points (24, 48, 72, and 96 h) after treatment with either PBS or 12 mg/kg CNS-102, administered orally. The average expression for each treatment group is calculated at each time point for each tissue using PROC MIXED in SAS and are tabulated, along with the difference (delta) between treatment averages and a p-value comparing the difference to zero, below.

[5] = system: Sprague Dawley rats, KA injected into the hippocampus; test: Time course of neuroprotection in the kainic acid model; format: in vivo, rat; settings: for Difference of mean fraction damaged to pooled PBS / Mean fraction of hippocampus cells having KA-induced damage: 12 mg/kg oral; for Mean fraction of hippocampus cells having KA-induced damage: pooled PBS 0.187
Procedure: CNS-102 was administered orally to Sprague Dawley rats at 12 mg/kg. After dosing, KA was stereotactically injected into the hippocampus at 24, 48, 72, 96 and 168 hours to induce neuron damage. After 24 h, hippocampus tissue was collected, stained, and imaged. The scans were analyzed by Image J to calculate the fraction of cells having KA-induced damage. Average fraction damaged in the hippocampus from ten animals for each treatment (PBS vs. 12 mg/kg CNS-102) by time (24, 48, 72, 96 and 168 hours) combination was estimated with PROC MIXED in SAS. Comparisons of the CNS-102 treatment groups to the pooled PBS treatment at the different times can be made, giving the results tabulated below.

rats, kainic acid model = test: Concentration dependence of neuroprotection in the kainic acid model; format: in vivo, rat; settings: one dose at 0, 1, 3, 6, 12 or 24 mg/kg; fraction of cells damaged
Procedure: The fraction of cells damaged in the kainic acid model was determined on 130 rats, each receiving one dose of CNS-102 at either 0, 1, 3, 6, 12 or 24 mg/kg. PBS was used for dosing at 0 mg/kg. The linear model of the log10 percent damage versus concentration is graphically shown FIG. 5.

HSP70 [6] = test: HSP70 induction in rat hippocampus with or without stereotactic kainic acid injection; format: in vivo
Procedure: Stereotactic injections of Kainic acid into rat hippocampus tissues led to increased damages in neurons. […] Under this condition, neurons and HSP70 expression was stained by immunohistochemistry techniques. HSP70 expression was induced in a very specific area only that KA was injected. The induced area was not stained by HSP70 antibody when KA was not injected, but CNS-102 was dosed.
HSP70 induction by dosing CNS-102 in the absence of the KA injection was limited in western blot experiments using hippocampus lysates. 120% or 130% of HSP70 expression could be seen by comparing those of vehicle dosing control experiments.

[7] = mouse, in vivo, po, 12 mg/kg
Procedure: (§1) A total of 84 male mice (64 transgenic Sod1 mutant mice; 20 wild type mice) were included in the study. Dosing was administered daily beginning at postnatal day 38 (P38) via a single bolus oral gavage injection.
(§2) Blood and serum samples from days P70 and P100 were collected on three animals from each of the six treatment groups. Hematology measures were white blood cell count, red blood cell count, hemoglobin, hematocrit, mean corpuscular volume, mean corpuscular hemoglobin, mean corpuscular hemoglobin concentration, and platelets. Chemistry values were alanine aminotransferase, aspartate aminotransferase, albumin, total protein, gamma globulin, blood urea nitrogen, cholesterol, and glucose.

[8] = Blood chemistry and hematology in Sod1 mutant and wild type mice; settings: daily oral 12 mg/kg
Procedure: as §1, §2

[9] = Cortex, 24 hours after 12 mg/kg oral
[10] = Cortex, 48 hours after 12 mg/kg oral
[11] = Cortex, 72 hours after 12 mg/kg oral
[12] = Cortex, 96 hours after 12 mg/kg oral
[13] = Hippocampus, 24 hours after 12 mg/kg oral
[14] = Hippocampus, 48 hours after 12 mg/kg oral
[15] = Hippocampus, 72 hours after 12 mg/kg oral
[16] = Hippocampus, 96 hours after 12 mg/kg oral

For `CC(=O)CC/C=C(\C)CC/C=C(\C)CC/C=C(\C)CCC=C(C)C` [CNS-102], the “Mean of Hippocampus CA3 neurons damaged (Arbitrary units)” value (“Mean of Hippocampus CA3 neurons damaged” below) ([1]; 3 mg/Kg rat) was 10.25 Arbitrary units, the “Mean of Hippocampus CA3 neurons damaged” value ([1]; 12 mg/Kg rat) was 10.16 Arbitrary units and the “Mean of Hippocampus CA3 neurons damaged” value ([1]; 25 mg/Kg rat) was 1.97 Arbitrary units. The “AUC(0-inf), Average” value ([2]; 12 mg/kg IV) was 208728 ng·min/mL, the “AUC(0-last), Average” value ([2]; 12 mg/kg IV) was 115146 ng·min/mL and the “C0, Average” value ([2]; 12 mg/kg IV) was 9144.0 ng/mL. For the same compound, the “Vss, Average” value ([2]; 12 mg/kg IV) was 9.796 L/kg, the “Vz, Average” value ([2]; 12 mg/kg IV) was 12.039 L/kg and the “t1/2, Average” value ([2]; 12 mg/kg IV) was 2.45 h. The “AUC(0-inf), Average” value ([2]; 24 mg/kg oral) was 204878 ng·min/mL, the “AUC(0-last), Average” value ([2]; 24 mg/kg oral) was 189114 ng·min/mL and the “Cmax, Average” value ([2]; 24 mg/kg oral) was 752.9 ng/mL. For the same compound, the “Tmax, Average” value ([2]; 24 mg/kg oral) was 5.67 h, the “t1/2, Average” value ([2]; 24 mg/kg oral) was 1.72 h and the “F(0-inf), Average” value ([2]; 24 mg/kg oral vs 12 mg/kg IV) was 49.1%. For the same compound, the “F(0-last), Average” value ([2]; 24 mg/kg oral vs 12 mg/kg IV) was 82.1%, the “induction of HSP70 expression (in words)” value (HSP70 [3]) was “induce expression of HSP70 at various concentrations” and the “HSP70 expression, delta CNS-PBS” value (HSP70 [4]; [9]) was 0.24. The “HSP70 expression, treatment average” value (HSP70 [4]; [9]) was −0.016, the “HSP70 expression, delta CNS-PBS” value (HSP70 [4]; [10]) was 0.11 and the “HSP70 expression, treatment average” value (HSP70 [4]; [10]) was −0.45. For the same compound, the “HSP70 expression, delta CNS-PBS” value (HSP70 [4]; [11]) was 0.13, the “HSP70 expression, treatment average” value (HSP70 [4]; [11]) was 0.14 and the “HSP70 expression, delta CNS-PBS” value (HSP70 [4]; [12]) was 0.19. For the same compound, the “HSP70 expression, treatment average” value (HSP70 [4]; [12]) was 0.04, the “HSP70 expression, delta CNS-PBS” value (HSP70 [4]; [13]) was −0.088 and the “HSP70 expression, treatment average” value (HSP70 [4]; [13]) was −0.159. The “HSP70 expression, delta CNS-PBS” value (HSP70 [4]; [14]) was 0.2, the “HSP70 expression, treatment average” value (HSP70 [4]; [14]) was 0.02 and the “HSP70 expression, delta CNS-PBS” value (HSP70 [4]; [15]) was 0.14. For the same compound, the “HSP70 expression, treatment average” value (HSP70 [4]; [15]) was −0.06, the “HSP70 expression, delta CNS-PBS” value (HSP70 [4]; [16]) was 0.17 and the “HSP70 expression, treatment average” value (HSP70 [4]; [16]) was −0.32. For the same compound, the “Difference of mean fraction damaged to pooled PBS” value ([5]; KA at 24 hours) was 0.005, the “Mean fraction of hippocampus cells having KA-induced damage” value ([5]; KA at 24 hours) was 0.193 and the “Difference of mean fraction damaged to pooled PBS” value ([5]; KA at 48 hours) was −0.064. The “Mean fraction of hippocampus cells having KA-induced damage” value ([5]; KA at 48 hours) was 0.123, the “Difference of mean fraction damaged to pooled PBS” value ([5]; KA at 72 hours) was −0.092 and the “Mean fraction of hippocampus cells having KA-induced damage” value ([5]; KA at 72 hours) was 0.096. The “Difference of mean fraction damaged to pooled PBS” value ([5]; KA at 96 hours) was −0.056, the “Mean fraction of hippocampus cells having KA-induced damage” value ([5]; KA at 96 hours) was 0.131 and the “Difference of mean fraction damaged to pooled PBS” value ([5]; KA at 168 hours) was −0.026. For the same compound, the “Mean fraction of hippocampus cells having KA-induced damage” value ([5]; KA at 168 hours) was 0.162, the “timepoint of maximal protection effect” value ([5]; single oral dose of 12 mg/kg) was 72 h and the minimal effective dose (rats, kainic acid model) was 12 mg/kg. For the same compound, the “HSP70 induction (in words)” value (HSP70 [6]; KA stereotactically injected in hippocampus, localized in the injection site) was “a strong induction of HSP70 was seen very clearly”, the “HSP70 expression compared with vehicle dosing control” value (HSP70 [6]; western blot of hippocampus lysates, absence of the KA injection) was 120% and 130% and the “ABSOLUTE BASOPHIL” value [7] was 0 per mm^3. For the same compound, the “BASOPHIL (%)” value [7] was 0.0%, the CALCIUM [7] was 7.7 mg/dL and the CREATININE [7] was <1 mg/dL. The “DIRECT BILIRUBIN” value [7] was 0.0 mg/dL, the “EOSINOPHIL (%)” value [7] was 1.5% and the HCT [7] was 46.0%. The “INDIRECT BILIRUBIN” value [7] was 0.0 mg/dL, the “LYMPHOCYTE (%)” value [7] was 84.0% and the “MONOCYTE (%)” value [7] was 0.8%. The “NRBC (per 100 WBC)” value [7] was 0.0 per 100 WBC, the PHOSPHORUS [7] was 5.7 mg/dL and the “PLATELET COUNT (Thousands)” value [7] was 1128.6 Thousands. For the same compound, the “RBC (Millions)” value [7] was 8.8 Millions, the “TOTAL BILIRUBIN” value [7] was 0.0 mg/dL and the “WBC (thousands)” value [7] was 4.7 thousands. The “blood and neurology examinations (in words)” value [7] was “no abnormalities in blood and neurology examinations” and the “cholesterol levels (in words)” value [8] was “cholesterol levels were reduced”.

Reference: patent US9045403B2 (Coyote Pharmaceuticals, Inc., priority 2012, dated 2015)
